Results on six molecules are retold here after US12258367B2, “Glucoside derivative that acts as SGLT1 inhibitor and application thereof” (MEDSHINE DISCOVERY INC., priority 2019, dated 2025).

Marks after values point to notes of the source that are not given here.

The target of one data set is T1, Human-SGLT1 (Homo sapiens, UniProt P13866).
T1 sequence (P13866 1-664): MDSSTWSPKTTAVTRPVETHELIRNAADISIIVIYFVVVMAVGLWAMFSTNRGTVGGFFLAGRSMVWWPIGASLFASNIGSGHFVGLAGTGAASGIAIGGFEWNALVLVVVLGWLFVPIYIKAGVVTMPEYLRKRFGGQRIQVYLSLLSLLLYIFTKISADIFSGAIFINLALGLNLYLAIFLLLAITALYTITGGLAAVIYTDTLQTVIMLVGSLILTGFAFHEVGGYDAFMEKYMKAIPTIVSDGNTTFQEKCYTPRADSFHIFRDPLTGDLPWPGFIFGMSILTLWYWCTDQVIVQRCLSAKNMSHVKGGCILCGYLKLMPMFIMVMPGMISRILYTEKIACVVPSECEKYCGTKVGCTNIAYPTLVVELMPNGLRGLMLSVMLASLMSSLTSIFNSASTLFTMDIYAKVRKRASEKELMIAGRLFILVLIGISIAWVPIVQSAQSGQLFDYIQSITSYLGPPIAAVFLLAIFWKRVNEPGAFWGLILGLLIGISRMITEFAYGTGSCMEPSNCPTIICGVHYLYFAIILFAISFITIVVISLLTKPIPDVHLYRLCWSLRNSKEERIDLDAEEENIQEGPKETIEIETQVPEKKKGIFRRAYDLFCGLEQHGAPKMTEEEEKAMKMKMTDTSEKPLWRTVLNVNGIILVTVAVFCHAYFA
In words: SGLT1 glucose transport assay ([14C]-methyl α-D-glucopyranoside uptake). It is filed as cell-based. The conditions noted are these: cells stably expressing Human-SGLT1, 37° C. for 2 hours. As for the experimental part:
The effect of the compounds on the glucose transport activity of the SGLT1 transporter was detected by measuring the amount of [^14C]-labeled glucose entering cells highly expressing Human-SGLT1.
The cells stably expressing Human-SGLT1 used in the assay were constructed by Shanghai WuXi AppTec. The SGLT1 cells were plated on a Cytostar-T (PerkinElmer) 96-well cell culture plate and cultured at 5% CO2, 37° C. overnight.

Another data set addresses T2, Human-SGLT2 (Homo sapiens, UniProt P31639).
T2 sequence (P31639 1-672): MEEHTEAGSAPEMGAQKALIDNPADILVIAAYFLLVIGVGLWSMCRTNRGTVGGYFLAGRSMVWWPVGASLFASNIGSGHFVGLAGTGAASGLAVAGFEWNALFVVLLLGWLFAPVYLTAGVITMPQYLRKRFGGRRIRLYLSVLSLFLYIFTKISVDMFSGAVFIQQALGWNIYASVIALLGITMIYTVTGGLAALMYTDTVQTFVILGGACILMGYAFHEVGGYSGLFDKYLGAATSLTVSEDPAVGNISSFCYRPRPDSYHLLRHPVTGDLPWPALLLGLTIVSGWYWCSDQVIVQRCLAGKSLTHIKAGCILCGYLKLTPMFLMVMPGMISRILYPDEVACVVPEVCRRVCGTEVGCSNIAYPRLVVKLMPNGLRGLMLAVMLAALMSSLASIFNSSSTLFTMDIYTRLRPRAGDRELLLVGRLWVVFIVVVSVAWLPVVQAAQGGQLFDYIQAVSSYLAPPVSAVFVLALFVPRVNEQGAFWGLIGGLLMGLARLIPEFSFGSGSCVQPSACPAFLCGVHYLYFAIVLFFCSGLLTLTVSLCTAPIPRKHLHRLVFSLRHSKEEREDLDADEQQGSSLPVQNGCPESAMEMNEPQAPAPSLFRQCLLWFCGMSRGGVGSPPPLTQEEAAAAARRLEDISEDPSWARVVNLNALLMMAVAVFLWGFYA
In words: SGLT2 glucose transport assay ([14C]-methyl α-D-glucopyranoside uptake). The data set is classed as cell-based. The settings on record: cells stably expressing Human-SGLT2, 37° C. for 2 hours. The method, then: The effect of the compound on the glucose transport activity of the SGLT2 transporter was detected by measuring the amount of [^14C]-labeled glucose entering cells highly expressing Human-SGLT2.
The cells stably expressing Human-SGLT2 used in the assay were constructed by Shanghai WuXi AppTec. The SGLT2 cells were plated on a 96-well cell culture plate (Greiner) and cultured at 5% CO2, 37° C. overnight.

The nature of data set [1]: In vivo DMPK study in rats. The settings on record: male SD rats; for clearance / half-life / Vd: iv, 1 mg/kg intravenously; for clearance: read-out: Cl (clearance rate); for half-life: read-out: T1/2 (half-life) (converted); for Vd: read-out: VdSS (distribution volume). An excerpt:
Purpose of the assay: Male SD rats were used as test animals to determine the blood concentration of the compound after a single administration and evaluate the pharmacokinetic behavior.
Procedure of the assay: 4 healthy adult male SD rats were selected, 2 rats in the intravenous injection group, and 2 rats in the oral group. The test compound was mixed with an appropriate amount of vehicle (10% NMP/10% solutol/80% water) for the intravenous injection group, vortexed, and sonicated to prepare a clear solution of 0.5 mg/mL. The clear solution was filtered by a microporous membrane for use. The vehicle for the oral group was 10% NMP/10% solutol/80% water. The test compound was mixed with the vehicle, and then the mixture was vortexed and sonicated to prepare a clear solution of 1 mg/mL. Rats were administered 1 mg/kg intravenously or 10 mg/kg orally, and then whole blood was collected for a certain period. Plasma was prepared. The drug concentration was analyzed by LC-MS/MS method, and the pharmacokinetic parameters were calculated by Phoenix WinNonlin software (Pharsight, USA).

The subject of another data set is SD rats. The experiment in a line: In vivo efficacy study of oral glucose tolerance in rats (OGTT). The settings on record: 5 mg/kg single gavage, then 50% glucose 2 g/kg, vehicle control 1063.4. As for the experimental part:
After the animals were fasted for 6 hours, they were administered WXD003 or vehicle according to Table 6, and then immediately administered 50% glucose solution (2 g/kg, 4 ml/kg).
The time for sugar administration was recorded as 0 point. The blood glucose of the animals was detected at 0 minute before sugar administration, and at 15, 30, 60, 90, 120 minutes after sugar administration, respectively. A curve of glucose tolerance was drawn based on the data of time versus blood glucose, and the area under curve (AUC) was calculated.
All values were expressed as average values. Statistical analysis was evaluated using Graphpad Prism 6 one-way analysis of variance and Tukey's multiple comparison test. A p value of less than 0.05 was considered statistically significant.

The test system of data set [2] is C57BL/6J male mice. In words: In vivo efficacy study in diabetic mouse model induced by STZ combined with high-sugar and high-fat diet. The settings on record: for Glycosylated hemoglobin after 6 hours of fasting / Blood glucose after 6 hours of fasting: HFHS. More on the design: species or system C57BL/6J mice. An excerpt: 7 week-old C57BL/6J male mice, purchased from Jiangsu GemPharmatech Co., Ltd.
1) After the animals adapted to the environment, all mice were divided into two groups according to body weight, fed according to the scheme in Table 8, and injected with vehicle and streptozotocin (STZ) for modeling;
2) According to the random blood glucose test results of the model group, mice with random blood glucose greater than 11 mmol/L were enrolled in the group to continue the administration assay;
3) The mice in the model group that meet the criteria for enrollment were divided into 3 groups, 5 in the normal group, and 10 in each model administration group. The mice were administered according to the administration schedule in Table 9;
4) After starting the administration, the level of change in animal weight was monitored every day, and the blood glucose and glycosylated hemoglobin of the mice in each group after 6 hours of fasting were detected after 4 weeks and 7 weeks of administration, respectively;
5) Data analysis: All values were expressed as average values. Statistical analysis was evaluated using Graphpad Prism 6 one-way analysis of variance and Tukey's multiple comparison test, and a p value of less than 0.05 was considered statistically significant.

Data set [3] concerns C57BL/6J male mice. In words: In vivo efficacy study in obese mouse model induced by HFHS diet. Set-up: species or system C57BL/6J mice. The conditions noted are these: for Blood glucose after 6 hours of fasting / Blood glucose 1 hour after meal: after 3 weeks of administration, HFHS; for Blood glucose after 6 hours of fasting: HFHS + Vehicle 10.5; for Blood glucose 1 hour after meal: HFHS + Vehicle 11.5. An excerpt: 5 week-old C57BL/6J male mice, purchased from Jiangsu GemPharmatech Co., Ltd.
1) After the animals adapted to the environment, they were fed a HFHS diet (Research Diet, HFHS, D12451) for 20 weeks, and then mice weighing more than 40 grams were selected for weight loss assay.
2) Animals whose body weight met the standard were adapted for vehicle administration, and then all mice were divided into 5 groups according to body weight for weight loss assay. The effect of the compound in reducing the body weight of animals was detected.
3) After starting the administration, the level of change in animal weight was monitored every day, and after 3 weeks of administration, the blood glucose levels of mice in each group after 6 hours of fasting and 1 hour after meal were detected, respectively;
4) Data analysis: All values were expressed as average values. Statistical analysis was evaluated using Graphpad Prism 6 one-way analysis of variance and Tukey's multiple comparison test, and a p value of less than 0.05 was considered statistically significant.

As for `CS[C@H]1O[C@@H](c2ccc(C)c(Cc3ccc(CCCC(=O)NC(C)(C)C(=O)NCCN(C)C)cc3)c2)[C@H](O)[C@@H](O)[C@@H]1O` [LX2761, reference compound], the half-maximal inhibitory concentration (IC50) against Human-SGLT1 was found to be 1.1 nM. Moreover, the midpoint of inhibition on Human-SGLT2, the IC50, lay at 1.1 nM. For the same molecule, in data set [1] (rat, plasma), the clearance turned out to be 37.6 mL/min/kg, the half-life was 114 min and the Vd was 1.4 L/kg.

As for `CCc1ccc([C@@H]2O[C@H](SC)[C@@H](O)[C@H](O)[C@H]2O)cc1Cc1ccc(OC2CCN(C(=O)C[C@H](N)Cc3cc(F)c(F)cc3F)CC2)cc1` [WXD003], the IC50 against Human-SGLT1 is 0.7 nM; against Human-SGLT2, 0.6 nM. Also, the “Oral DNAUC (AUCPO/Dose)” value in data set [1] (10 mg/kg orally) was found to be 2 nM · h/mpk. Further, in data set [1] (rat, plasma), the clearance is 32.5 mL/min/kg. The half-life in data set [1] (rat, plasma) was 138 min. Further, in data set [1] (rat, plasma), the Vd is 1.5 L/kg. Moreover, in data set [1] (rat, plasma, oral, 10 mg/kg orally vs 1 mg/kg intravenously, read-out: F % (oral bioavailability)), the bioavailability amounted to 0.2%. The same molecule returned a maximum concentration (Cmax) in data set [1] (rat, po, 10 mg/kg orally, plasma) of 16.5 nM. The “OGTT blood glucose level AUC0-2 hours” value in the data set with SD rats is recorded as 624.2**** mmol/L × min. In addition, the “Glycosylated hemoglobin after 6 hours of fasting” value is 4.5*** % in the data set on C57BL/6J male mice [2] (after 4 weeks of administration, 3 mg/kg orally once a day, HFHS + Vehicle 4.9) and 4.4**** % with C57BL/6J male mice [2] (after 7 weeks of administration, 6 mg/kg (week 4 to 7) orally once a day, HFHS + Vehicle 5.2). Moreover, the “Blood glucose after 6 hours of fasting” value with C57BL/6J male mice [2] (after 4 weeks of administration, 3 mg/kg orally once a day, HFHS + Vehicle 13.7) is listed as 10.3*** mmol/L; in the data set on C57BL/6J male mice [2] (after 7 weeks of administration, 6 mg/kg (week 4 to 7) orally once a day, HFHS + Vehicle 15.3) it was 9.6**** mmol/L; in the data set on C57BL/6J male mice [3] (0.3 mg/kg orally once a day), 9.7 mmol/L; in the data set with C57BL/6J male mice [3] (1 mg/kg orally once a day) it was 9.6 mmol/L; with C57BL/6J male mice [3] (3 mg/kg orally once a day), 9.7 mmol/L. Further, the “weight gain of animals” value is reported as “can effectively control the weight gain of animals” with C57BL/6J male mice [2] (after 4 weeks of administration, FIG. 3) and “can effectively control the weight gain of animals” in the data set with C57BL/6J male mice [2] (after 7 weeks of administration, FIG. 6). The “Blood glucose 1 hour after meal” value in the data set with C57BL/6J male mice [3] (0.3 mg/kg orally once a day) is listed as 10.5 mmol/L; with C57BL/6J male mice [3] (1 mg/kg orally once a day) it was 10.2 mmol/L; with C57BL/6J male mice [3] (3 mg/kg orally once a day) it was 9.6* mmol/L. The animal weight entry in the data set on C57BL/6J male mice [3] (after 3 weeks of administration, 0.3, 1, 3 mg/kg, FIG. 7 and FIG. 8) was “can significantly reduce animal weight in a dose-dependent manner”.

For `CS[C@H]1O[C@@H](c2ccc(C)c(Cc3ccc(OC4CCN(C(=O)C[C@H](N)Cc5cc(F)c(F)cc5F)CC4)cc3)c2)[C@H](O)[C@@H](O)[C@@H]1O` [WXD004], the IC50 on Human-SGLT1 and on Human-SGLT2 was 0.8 nM throughout.

As to `CCc1ccc([C@@H]2O[C@H](SC)[C@@H](O)[C@H](O)[C@H]2O)cc1Cc1ccc(OC2CCN(C(=O)C[C@@H](Cc3cc(F)c(F)cc3F)NC)CC2)cc1` [WXD005], the IC50 was 3.5 nM at Human-SGLT1 and 1.4 nM on Human-SGLT2.

For `CS[C@H]1O[C@@H](c2ccc(F)c(Cc3ccc(OC4CCN(C(=O)C[C@H](N)Cc5cc(F)c(F)cc5F)CC4)cc3)c2)[C@H](O)[C@@H](O)[C@@H]1O` [WXD006], the IC50 on Human-SGLT1 was 35 nM; against Human-SGLT2 it was 1.4 nM.

In the case of `CS[C@H]1O[C@@H](c2cccc(Cc3ccc(OC4CCN(C(=O)C[C@H](N)Cc5cc(F)c(F)cc5F)CC4)cc3)c2)[C@H](O)[C@@H](O)[C@@H]1O` [WXD007], the IC50 came to 69 nM against Human-SGLT1 and 5.8 nM against Human-SGLT2.
